Results from paper PMC4640567, “Cinnamic Acid Bornyl Ester Derivatives from Valeriana wallichii Exhibit Antileishmanial In Vivo Activity in Leishmania major-Infected BALB/c Mice” (PLoS ONE, 2015).

Columns and labels:
L. major promastigotes [1] = system: L. major promastigotes; design: method as in PMID 25834987; conditions: cited from earlier work
[2] = AlamarBlue cytotoxicity, BMDM; type: cell-based; conditions: bone marrow-derived macrophages (BMDM)
Procedure: BMDM were generated in complete RPMI medium as described previously. On day six, the cytotoxicity against 2 × 10^5 cells/ml was tested at increasing concentrations of compounds 1 and 2 for 48 h. Human embryonic kidney HEK 293 T cells (ATCC, Wesel, Germany) were cultured in Dulbecco´s Modified Eagle Medium (DMEM) (Life Technologies, Darmstadt, Germany), with 10% FCS (PAA Laboratories, Germany). According to the standard operating procedures (SOP) within the Collaborative Research Center 630 (SFB 630) 2 × 10^4 HEK 293 T cells/ml were tested at increasing concentrations of compounds 1 and 2 for 48 h. Human liver carcinoma HepG2 cells (ATCC) were cultured in RPMI medium (Gibco) with 10% FCS. 1 × 10^5 cells/ml HepG2 were tested at increasing concentrations of 1 and 2 for 72 h according to the SOPs. The AlamarBlue assay was performed as described above for L. major parasites.

L. major promastigotes [3] = assay: Diff-Quik staining and transmitted light microscopy, cell morphology; type: cell-based, Leishmania major; conditions: 122.7 μM
Procedure: (§1) L. major parasites harvested from blood agar cultures were washed twice with Dulbecco’s phosphate-buffered saline (DPBS; Invitrogen, Darmstadt, Germany) and centrifuged at 3.000 × g for 10 min. The pellet was suspended in RPMI 1640 medium at a final concentration of 1 × 10^8 cells/ml. Cells were treated with 1% DMSO, 122.7 μM miltefosine (1-hexadecylphorylcholine; apoptosis inducer), or 100 μM of the tested compounds 1 and 2 in a final volume of 200 μl in 96 well plates. Samples were incubated at 27°C in 5% CO2 for several time points between 30 min and 24 h. Transmitted light microscopic, transmission electron microscopic (TEM), and flow cytometric techniques were used to find phenotypic patterns caused by the treatment with the tested compounds.
After incubation for 30 min, 1 h, 2 h, 4 h, and 24 h in the presence of the tested compounds 1 and 2, promastigotes were harvested and centrifuged in a Cytospin 3 centrifuge (Shandon, Frankfurt, Germany) on microscope slides at 253 × g for 5 min at room temperature (RT). Cytospin preparations of cells were stained using the Differential Quick Stain (Diff-Quik) dye (Medion Diagnostics AG, Duedingen, Switzerland), according to the manufacturers’ protocol with some modifications. Diff-Quik stains the leishmanial nuclei and the kinetoplasts dark purple and the cytoplasm light purple allowing the observation of phenotypic changes within the parasite. Briefly, air-dried cells were fixed by dipping the slides 5 times for 3 seconds in fixative solution. Subsequently the slides were stained with Solution I following Solution II (from Diff-Quik kit) and air-dried between each staining steps. Finally, the samples were rapidly dipped once in ultra-pure water (produced by a TKA purification system apparatus, Niederelbert, Germany) to remove excessive staining solutions. The air-dried cells were analyzed by transmitted light microscopy under a 50× objective on a Nikon ECLIPSE 50i microscope equipped with a digital camera (Nikon, Tokyo, Japan). The images were processed using NIS Elements D software (Nikon).

L. major promastigotes [4] = assay: Annexin V / propidium iodide flow cytometry, cell death phenotype; type: cell-based, Leishmania major; conditions: 122.7 μM
Procedure: as §1
The loss of membrane integrity and translocation of phosphatidylserine (PS) to the outside of the cellular membrane can be determined by annexin V (AV) and propidium iodide (PI) staining. Double staining with AV-fluorescein isothiocyanate (FITC) and PI during flow cytometry analysis leads to discrimination between four populations: double negatives or alive cells (AV^-/PI^-), double positive or late necrotic/late apoptotic cells (AV^+/PI^+), PI-positive and AV-negative or early necrotic cells (AV^-/PI^+), and PI-negative and AV-positive or early apoptotic cells (AV^+/PI^-).
Parasites were harvested after incubation for 6 h, 10 h, and 24 h in the presence of compounds 1, 2 and miltefosine (Cayman Chemical Company, MI, USA), respectively, the latter serving as positive control for the induction of apoptotic cell death. DMSO was used as solvent control. Cell staining was performed using an AV-FITC Apoptosis detection kit (Sigma-Aldrich, Saint Louis, MO, USA). Cells were harvested, washed and suspended in 500 μL of binding buffer, 5 μL of AV-FITC and 10 μl of PI. The cells were incubated for 10 min in the dark at RT. Finally, stained samples were immediately analyzed by flow cytometry using MACSQuant analyzer or a flow cytometer (Becton Dickinson, San José, CA, USA).

L. major promastigotes [5] = system: L. major promastigotes; design: method as in PMID 24473204; conditions: positive control; cited from earlier work
L. major amastigotes = system: L. major amastigotes; design: method as in PMID 24473204; conditions: positive control; cited from earlier work

SMILES: CC1(C)C2CCC1(C)C(OC(=O)/C=C/c1ccc(O)c(O)c1)C2 (stereo not shown) [caffeic acid bornyl ester]
- Antileishmanial activity against L. major promastigotes (L. major promastigotes [1]): good antileishmanial activity

SMILES: CCCCCCCCCCCCCCCCOP(=O)([O-])OCC[N+](C)(C)C [Miltefosine, 1-hexadecylphorylcholine, reference compound]
- IC50 at 48 h [2]: 65.5 µM
- Time after which morphological changes and cell disruption were promoted (L. major promastigotes [3]): 2 h
- LL: live cells (AV-/PI-) (L. major promastigotes [4]; 6 h): 35.5%
- LR: early apoptotic cells (AV+/PI-) (L. major promastigotes [4]; 6 h): 8.2%
- UL: early necrotic cells (AV-/PI+) (L. major promastigotes [4]; 6 h): 11.8%
- UR: necrotic/late apoptotic cells (AV+/PI+) (L. major promastigotes [4]; 6 h): 44.5%
- LR: early apoptotic cells (AV+/PI-) (L. major promastigotes [4]; 6 h, listed as miltefosine): 8%
- UR: necrotic/late apoptotic cells (AV+/PI+) (L. major promastigotes [4]; 6 h, listed as miltefosine): 45%
- LL: live cells (AV-/PI-) (L. major promastigotes [4]; 10 h): 15.9%
- LR: early apoptotic cells (AV+/PI-) (L. major promastigotes [4]; 10 h): 13.2%
- UL: early necrotic cells (AV-/PI+) (L. major promastigotes [4]; 10 h): 11.3%
- UR: necrotic/late apoptotic cells (AV+/PI+) (L. major promastigotes [4]; 10 h): 59.6%
- LL: live cells (AV-/PI-) (L. major promastigotes [4]; 24 h): 6.3%
- LR: early apoptotic cells (AV+/PI-) (L. major promastigotes [4]; 24 h): 13.0%
- UL: early necrotic cells (AV-/PI+) (L. major promastigotes [4]; 24 h): 5.5%
- UR: necrotic/late apoptotic cells (AV+/PI+) (L. major promastigotes [4]; 24 h): 75.2%
- LR: early apoptotic cells (AV+/PI-) (L. major promastigotes [4]; 24 h, listed as miltefosine): 13%
- UR: necrotic/late apoptotic cells (AV+/PI+) (L. major promastigotes [4]; 24 h, listed as miltefosine): 75%
- Promastigotes with affinity of the parasitic surface towards AV (L. major promastigotes [4]; within 24 h): 88%
- IC50 (L. major promastigotes [5]): 36.2 µM
- IC50 (L. major amastigotes): 33 µM
